Data on five molecules can be found in ChEMBL document CHEMBL4725268, “Anticonvulsant and analgesic in neuropathic pain activity in a group of new aminoalkanol derivatives” (Bioorg Med Chem Lett, 2020).

Each structure is given as a SMILES string.

Data set [1] is described as follows: Toxicity in mouse assessed as lethality at 50 mg/kg, ip. Type of data set: organism-based. To be noted: in vivo.
The subject of data set [2] is Mus musculus. The experiment in a line: Anticonvulsant activity in ip dosed albino mouse assessed as protection against 50 mA current-induced seizure by maximal electroshock seizure test. Type of data set: functional. For orientation: In the maximal electroshock model the usual endpoint is tonic extension of the hind limbs.
The nature of data set [3]: Toxicity in mouse assessed as lethality at 30 mg/kg, ip. The conditions noted are these: in vivo. Type of data set: organism-based.
Data set [4] deals with Mus musculus. In words: Anticonvulsant activity in ip dosed mouse assessed as protection against current-induced seizure by maximal electroshock seizure test. Format: functional.
A short description of data set [5]: Toxicity in ip dosed mouse assessed as motor impairment by rotarod test. Type of data set: organism-based. The conditions noted are these: in vivo.
Data set [6] can be described thus: Protection index, ratio of TD50 for toxicity in ip dosed mouse to ED50 for anticonvulsant activity in ip dosed mouse. To be noted: in vivo, read-out: PI. Type of data set: organism-based.

In the case of `Cc1ccc(OCCCN2CCC(O)CC2)c(C)c1`, the Activity entry in data set [1] was “Non-Toxic”. As a reminder, the ED50 is the dose at which the effect has come halfway, by size or by number of responders. For the molecule `CC(C)NC[C@H](O)COc1cccc2ccccc12` [LEVOPROPRANOLOL], the ED50 in data set [2] was determined as 19.2 mg/kg. Same read-out and setting: as for `CC(C)NC[C@@H](O)COc1cccc2ccccc12` [DEXPROPRANOLOL], the figure is 16 mg/kg. Turning to `Cc1cc(C)c(OCCCN[C@H]2CC[C@H](O)CC2)c(C)c1`, the Activity result in data set [3] is reported as “Toxic”.

In general, TD50 refers to the 50% point of the dose-response relation for the toxic effect studied. Regarding `CC[C@@H](CO)NCCOCCOc1ccc(C)cc1C.Cl`, the ED50 in data set [4] came to 40.5 mg/kg. Further, in data set [5], the TD50 turned out to be 94.4 mg/kg. The selectivity ratio in data set [6] was 2.33.
